Data set [1] concerns the target Sodium-dependent noradrenaline transporter (Homo sapiens, UniProt P23975). Put plainly: DRUGMATRIX: Norepinephrine Transporter radioligand binding (ligand: [125I] RTI-55). The class given is cell membranes, MDCK, Membrane. The settings on record: Not Active = under 50% inhibition at 10 µM.
Another data set deals with T1, Calcitonin receptor (Homo sapiens, UniProt P30988).
T1 sequence (P30988 whole entry): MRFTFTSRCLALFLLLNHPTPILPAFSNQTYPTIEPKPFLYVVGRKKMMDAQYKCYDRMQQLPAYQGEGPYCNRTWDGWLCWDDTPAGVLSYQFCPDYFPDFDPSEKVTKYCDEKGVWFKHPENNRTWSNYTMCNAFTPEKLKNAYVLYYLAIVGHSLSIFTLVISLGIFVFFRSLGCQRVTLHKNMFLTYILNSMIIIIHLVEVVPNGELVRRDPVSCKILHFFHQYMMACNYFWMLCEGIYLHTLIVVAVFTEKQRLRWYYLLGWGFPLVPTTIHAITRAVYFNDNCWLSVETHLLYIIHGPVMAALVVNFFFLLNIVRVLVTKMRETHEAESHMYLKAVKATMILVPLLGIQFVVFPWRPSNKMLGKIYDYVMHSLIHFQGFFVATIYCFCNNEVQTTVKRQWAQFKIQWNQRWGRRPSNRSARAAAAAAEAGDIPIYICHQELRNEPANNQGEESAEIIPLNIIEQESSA
The format is cell membranes, Membrane. To be noted: t47d.

The target of data set [2] is Sigma non-opioid intracellular receptor 1 (Homo sapiens, UniProt Q99720). Put plainly: DRUGMATRIX: Sigma1 radioligand binding (ligand: [3H] Haloperidol). The format is cell membranes, Jurkat, Membrane. To be noted: jurkat; Not Active = under 50% inhibition at 10 µM.
Sequence of Sigma non-opioid intracellular receptor 1 (Q99720 whole entry): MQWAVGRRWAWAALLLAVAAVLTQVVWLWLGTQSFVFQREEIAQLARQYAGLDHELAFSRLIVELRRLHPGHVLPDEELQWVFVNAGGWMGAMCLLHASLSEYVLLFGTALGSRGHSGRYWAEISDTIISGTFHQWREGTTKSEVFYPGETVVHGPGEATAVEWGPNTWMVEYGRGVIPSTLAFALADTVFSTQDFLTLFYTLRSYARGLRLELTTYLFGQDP
The target of data set [3] is T2, C-X-C chemokine receptor type 2 (Homo sapiens, UniProt P25025). Note: in other assays of this panel Not Active means under 50% inhibition at 10 µM.
T2 sequence (P25025 whole entry): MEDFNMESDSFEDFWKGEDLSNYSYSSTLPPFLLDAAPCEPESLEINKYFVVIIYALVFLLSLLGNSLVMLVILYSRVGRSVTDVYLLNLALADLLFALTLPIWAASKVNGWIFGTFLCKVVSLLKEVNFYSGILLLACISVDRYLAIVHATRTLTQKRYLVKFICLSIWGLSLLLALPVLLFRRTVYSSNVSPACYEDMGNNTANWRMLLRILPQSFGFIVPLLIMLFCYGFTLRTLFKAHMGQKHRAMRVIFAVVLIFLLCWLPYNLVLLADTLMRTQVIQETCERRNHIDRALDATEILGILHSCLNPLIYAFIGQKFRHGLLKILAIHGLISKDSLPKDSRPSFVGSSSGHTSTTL
The class given is cell membranes, Membrane. To be noted: cho-k1.

The next data set has as its target D(3) dopamine receptor (Homo sapiens, UniProt P35462). Put plainly: DRUGMATRIX: Dopamine D3 radioligand binding (ligand: [3H] Spiperone). To be noted: cho. The format is cell membranes, CHO, Membrane.
A short description of data set [4]: DRUGMATRIX: GABAA, Chloride Channel, TBOB radioligand binding (ligand: [3H] TBOB). The settings on record: Not Active = under 50% inhibition at 10 µM. The class given is cell membranes, Rattus norvegicus, Wistar, Cerebral cortex, Membrane.
In another data set the target is Melanocortin receptor 3 (Homo sapiens, UniProt P41968). The class given is cell membranes, Membrane. To be noted: hek293. Note: in other assays of this panel Not Active means under 50% inhibition at 10 µM.
Sequence of Melanocortin receptor 3 (P41968 whole entry): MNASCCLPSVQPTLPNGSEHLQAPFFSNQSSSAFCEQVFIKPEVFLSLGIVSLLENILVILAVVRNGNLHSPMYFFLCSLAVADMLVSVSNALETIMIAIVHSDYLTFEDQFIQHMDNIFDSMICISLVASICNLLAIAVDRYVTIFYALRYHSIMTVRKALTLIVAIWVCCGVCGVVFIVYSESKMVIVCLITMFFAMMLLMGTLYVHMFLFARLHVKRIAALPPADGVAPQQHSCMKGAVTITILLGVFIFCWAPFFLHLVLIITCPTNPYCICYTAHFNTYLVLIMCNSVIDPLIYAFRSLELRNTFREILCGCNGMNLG
The target in data set [5] is Platelet-activating factor receptor (Homo sapiens, UniProt P25105). Put plainly: biochemical. The format is tissue-based. To be noted: platelet. Note: in other assays of this panel Not Active means under 50% inhibition at 10 µM.
Sequence of Platelet-activating factor receptor (P25105 whole entry): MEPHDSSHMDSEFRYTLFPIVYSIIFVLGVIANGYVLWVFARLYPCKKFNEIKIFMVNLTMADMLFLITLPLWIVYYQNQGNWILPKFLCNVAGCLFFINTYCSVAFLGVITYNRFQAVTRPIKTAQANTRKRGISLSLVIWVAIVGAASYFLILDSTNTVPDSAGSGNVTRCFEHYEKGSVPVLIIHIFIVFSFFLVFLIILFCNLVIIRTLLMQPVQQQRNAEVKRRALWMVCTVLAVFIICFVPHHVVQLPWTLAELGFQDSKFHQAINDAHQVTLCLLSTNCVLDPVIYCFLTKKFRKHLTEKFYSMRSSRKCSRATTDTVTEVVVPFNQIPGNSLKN
In data set [6] the target is Mitogen-activated protein kinase 1 (Homo sapiens, UniProt P28482). Put plainly: DRUGMATRIX: Protein Serine/Threonine Kinase, ERK2 enzyme inhibition (substrate: Myelin Basic Protein). Also on record: species or system Escherichia coli. The settings on record: Not Active = under 50% inhibition at 10 µM.
Sequence of Mitogen-activated protein kinase 1 (P28482 whole entry): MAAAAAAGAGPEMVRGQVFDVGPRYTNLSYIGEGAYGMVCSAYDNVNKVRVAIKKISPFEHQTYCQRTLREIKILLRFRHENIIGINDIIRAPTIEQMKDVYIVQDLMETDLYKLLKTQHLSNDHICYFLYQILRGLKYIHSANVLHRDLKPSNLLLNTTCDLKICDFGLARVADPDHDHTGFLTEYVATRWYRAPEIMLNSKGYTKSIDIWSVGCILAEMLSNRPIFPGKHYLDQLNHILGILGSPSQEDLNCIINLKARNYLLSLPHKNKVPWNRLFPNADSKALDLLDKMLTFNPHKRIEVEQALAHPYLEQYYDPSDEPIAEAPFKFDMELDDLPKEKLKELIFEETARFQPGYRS
In data set [7] the target is Mitogen-activated protein kinase 14 (Homo sapiens, UniProt Q16539). On the set-up: species or system Escherichia coli.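 Note: inhibition of p38alpha enzyme activity in a biochemical kinase assay, with myelin basic protein serving as substrate; in other assays of this panel Not Active means under 50% inhibition at 10 µM.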
Sequence of Mitogen-activated protein kinase 14 (Q16539 whole entry): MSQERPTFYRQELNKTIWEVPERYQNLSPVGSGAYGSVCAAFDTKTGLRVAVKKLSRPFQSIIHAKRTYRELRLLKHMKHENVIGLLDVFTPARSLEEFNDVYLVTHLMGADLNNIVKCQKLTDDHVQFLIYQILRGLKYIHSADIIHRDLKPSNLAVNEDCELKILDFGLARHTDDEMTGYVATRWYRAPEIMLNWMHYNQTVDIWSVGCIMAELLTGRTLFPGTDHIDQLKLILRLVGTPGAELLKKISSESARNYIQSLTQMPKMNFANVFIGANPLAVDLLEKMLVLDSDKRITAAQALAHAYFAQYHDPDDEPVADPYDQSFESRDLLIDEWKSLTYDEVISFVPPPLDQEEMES
A further data set addresses Estrogen receptor beta (Homo sapiens, UniProt Q92731). The settings on record: sf9.
The target in a further data set is Cytochrome P450 2E1 (Homo sapiens, UniProt P05181). The settings on record: bti-tn-5b1-4. Note: in other assays of this panel Not Active means under 50% inhibition at 10 µM.
Sequence of Cytochrome P450 2E1 (P05181 whole entry): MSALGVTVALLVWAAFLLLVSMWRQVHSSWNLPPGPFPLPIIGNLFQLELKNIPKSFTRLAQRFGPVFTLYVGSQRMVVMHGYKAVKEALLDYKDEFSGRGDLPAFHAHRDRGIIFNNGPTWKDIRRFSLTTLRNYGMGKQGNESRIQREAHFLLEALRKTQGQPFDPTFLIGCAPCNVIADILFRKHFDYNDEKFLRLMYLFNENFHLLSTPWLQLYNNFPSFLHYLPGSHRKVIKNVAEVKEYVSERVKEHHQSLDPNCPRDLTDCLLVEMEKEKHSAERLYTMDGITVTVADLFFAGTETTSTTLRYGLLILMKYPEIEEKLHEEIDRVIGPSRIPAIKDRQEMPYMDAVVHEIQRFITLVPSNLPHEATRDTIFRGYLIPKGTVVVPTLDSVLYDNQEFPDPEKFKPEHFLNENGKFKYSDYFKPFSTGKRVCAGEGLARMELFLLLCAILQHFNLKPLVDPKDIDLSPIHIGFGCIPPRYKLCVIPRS
For data set [8], the target named is Voltage-gated inwardly rectifying potassium channel KCNH2 (Homo sapiens, UniProt Q12809). To be noted: hek293. Note: in other assays of this panel Not Active means under 50% inhibition at 10 µM.
Sequence of Voltage-gated inwardly rectifying potassium channel KCNH2 (Q12809 whole entry): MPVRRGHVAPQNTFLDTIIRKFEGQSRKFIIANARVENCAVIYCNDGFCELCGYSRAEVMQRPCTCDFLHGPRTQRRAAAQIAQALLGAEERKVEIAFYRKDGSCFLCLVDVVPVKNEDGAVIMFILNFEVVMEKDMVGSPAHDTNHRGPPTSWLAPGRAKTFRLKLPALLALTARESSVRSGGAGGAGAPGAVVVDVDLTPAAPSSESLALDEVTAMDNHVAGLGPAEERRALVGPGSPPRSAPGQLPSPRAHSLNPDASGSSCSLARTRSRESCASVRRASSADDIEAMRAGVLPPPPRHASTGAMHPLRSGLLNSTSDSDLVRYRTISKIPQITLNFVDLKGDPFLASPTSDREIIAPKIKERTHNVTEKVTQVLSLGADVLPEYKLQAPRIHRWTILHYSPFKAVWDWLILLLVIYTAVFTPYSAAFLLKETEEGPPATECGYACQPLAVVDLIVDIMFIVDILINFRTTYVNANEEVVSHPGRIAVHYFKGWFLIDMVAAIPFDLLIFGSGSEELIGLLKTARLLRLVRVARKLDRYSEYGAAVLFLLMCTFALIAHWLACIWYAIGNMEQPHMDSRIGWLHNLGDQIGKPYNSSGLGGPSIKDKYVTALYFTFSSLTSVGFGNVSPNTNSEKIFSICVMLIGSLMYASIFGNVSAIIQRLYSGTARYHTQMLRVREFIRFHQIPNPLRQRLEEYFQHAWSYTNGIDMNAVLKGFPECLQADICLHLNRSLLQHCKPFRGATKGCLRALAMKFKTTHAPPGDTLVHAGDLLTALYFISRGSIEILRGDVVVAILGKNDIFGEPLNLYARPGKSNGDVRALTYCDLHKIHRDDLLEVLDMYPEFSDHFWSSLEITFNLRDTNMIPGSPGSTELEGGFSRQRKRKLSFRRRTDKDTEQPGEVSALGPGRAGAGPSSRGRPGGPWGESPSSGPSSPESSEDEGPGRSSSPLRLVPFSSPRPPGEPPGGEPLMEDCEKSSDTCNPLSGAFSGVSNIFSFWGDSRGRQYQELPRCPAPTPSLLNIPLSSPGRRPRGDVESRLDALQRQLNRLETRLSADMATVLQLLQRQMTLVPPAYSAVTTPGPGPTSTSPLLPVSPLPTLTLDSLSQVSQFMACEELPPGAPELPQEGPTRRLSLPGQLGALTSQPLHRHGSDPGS
In another data set the target is T3, Cytochrome P450 1A2 (Homo sapiens, UniProt P05177). Note: in other assays of this panel Not Active means under 50% inhibition at 10 µM.
T3 sequence (P05177 whole entry): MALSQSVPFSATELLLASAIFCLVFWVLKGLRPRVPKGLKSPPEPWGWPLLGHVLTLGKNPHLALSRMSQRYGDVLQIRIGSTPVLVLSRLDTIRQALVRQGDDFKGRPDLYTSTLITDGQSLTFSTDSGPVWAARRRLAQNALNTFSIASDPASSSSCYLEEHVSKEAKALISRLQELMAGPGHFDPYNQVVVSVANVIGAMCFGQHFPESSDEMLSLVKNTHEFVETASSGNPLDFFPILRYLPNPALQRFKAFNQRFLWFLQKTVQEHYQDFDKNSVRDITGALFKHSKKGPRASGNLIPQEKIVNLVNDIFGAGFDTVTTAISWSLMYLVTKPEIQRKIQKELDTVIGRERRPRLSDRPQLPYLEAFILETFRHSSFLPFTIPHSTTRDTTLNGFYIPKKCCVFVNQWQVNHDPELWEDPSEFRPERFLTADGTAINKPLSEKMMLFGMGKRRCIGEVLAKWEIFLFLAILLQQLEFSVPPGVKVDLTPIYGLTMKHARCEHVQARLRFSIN
To be noted: bti-tn-5b1-4.

The target in the next data set is Cytochrome P450 2C19 (Homo sapiens, UniProt P33261). The settings on record: bti-tn-5b1-4. Note: in other assays of this panel Not Active means under 50% inhibition at 10 µM.
The target of another data set is Cytochrome P450 2C9 (Homo sapiens, UniProt P11712). The settings on record: bti-tn-5b1-4. Note: in other assays of this panel Not Active means under 50% inhibition at 10 µM.
In another data set the target is Cytochrome P450 2D6 (Homo sapiens, UniProt P10635). The settings on record: bti-tn-5b1-4. Note: in other assays of this panel Not Active means under 50% inhibition at 10 µM.

For eight compounds, IC50 and Ki results are on record in ChEMBL document CHEMBL1909046, “DrugMatrix in vitro pharmacology data”.

Molecules are shown by their SMILES.

In general, IC50 refers to the point on the concentration scale where inhibition reaches its midpoint. A word on the Ki: it is the dissociation constant of the complex between target and ligand, obtained from inhibition or displacement.

Sequence of Sodium-dependent noradrenaline transporter (P23975 whole entry): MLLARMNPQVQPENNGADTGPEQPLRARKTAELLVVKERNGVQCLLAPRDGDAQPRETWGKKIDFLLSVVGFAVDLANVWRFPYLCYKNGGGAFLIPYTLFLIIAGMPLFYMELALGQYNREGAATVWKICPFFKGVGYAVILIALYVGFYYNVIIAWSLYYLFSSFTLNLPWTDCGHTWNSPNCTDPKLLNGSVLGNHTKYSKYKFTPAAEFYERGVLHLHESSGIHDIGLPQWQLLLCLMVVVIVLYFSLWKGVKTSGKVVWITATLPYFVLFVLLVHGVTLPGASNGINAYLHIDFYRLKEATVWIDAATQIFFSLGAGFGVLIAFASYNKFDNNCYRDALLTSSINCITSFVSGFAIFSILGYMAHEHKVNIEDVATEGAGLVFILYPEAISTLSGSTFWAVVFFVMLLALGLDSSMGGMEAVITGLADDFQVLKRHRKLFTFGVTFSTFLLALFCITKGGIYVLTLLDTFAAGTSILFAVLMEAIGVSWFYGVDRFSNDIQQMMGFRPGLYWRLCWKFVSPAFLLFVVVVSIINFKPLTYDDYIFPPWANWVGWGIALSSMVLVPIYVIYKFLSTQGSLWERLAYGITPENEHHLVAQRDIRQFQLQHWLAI
Sequence of Estrogen receptor beta (Q92731 whole entry): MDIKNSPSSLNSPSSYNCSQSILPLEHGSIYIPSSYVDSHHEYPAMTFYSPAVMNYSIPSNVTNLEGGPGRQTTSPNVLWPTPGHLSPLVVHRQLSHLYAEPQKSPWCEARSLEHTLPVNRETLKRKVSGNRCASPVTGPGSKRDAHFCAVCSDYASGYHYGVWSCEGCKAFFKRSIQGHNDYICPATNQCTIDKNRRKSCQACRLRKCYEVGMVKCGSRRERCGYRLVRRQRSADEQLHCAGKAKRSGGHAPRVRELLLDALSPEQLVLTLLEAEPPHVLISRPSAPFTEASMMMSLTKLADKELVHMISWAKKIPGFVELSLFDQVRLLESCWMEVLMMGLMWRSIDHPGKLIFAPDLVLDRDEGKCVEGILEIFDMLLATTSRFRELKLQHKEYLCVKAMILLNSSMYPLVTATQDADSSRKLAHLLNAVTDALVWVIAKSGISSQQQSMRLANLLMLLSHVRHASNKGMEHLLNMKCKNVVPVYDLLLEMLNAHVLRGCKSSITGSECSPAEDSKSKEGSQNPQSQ
Sequence of D(3) dopamine receptor (P35462 whole entry): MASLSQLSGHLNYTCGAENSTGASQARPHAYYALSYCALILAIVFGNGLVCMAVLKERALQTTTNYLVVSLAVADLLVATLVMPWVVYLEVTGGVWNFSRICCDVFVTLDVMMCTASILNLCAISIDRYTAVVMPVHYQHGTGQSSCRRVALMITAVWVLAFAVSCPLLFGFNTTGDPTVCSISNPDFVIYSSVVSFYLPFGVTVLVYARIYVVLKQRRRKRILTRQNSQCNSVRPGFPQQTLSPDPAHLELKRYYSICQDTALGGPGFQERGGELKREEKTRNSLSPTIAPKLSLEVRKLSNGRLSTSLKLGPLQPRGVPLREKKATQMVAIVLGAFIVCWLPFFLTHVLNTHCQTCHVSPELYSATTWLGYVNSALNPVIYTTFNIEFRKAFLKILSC

`O=C1c2c(O)ccc(O)c2C(=O)c2c(NCCNCCO)ccc(NCCNCCO)c21` [MITOXANTRONE]: the IC50 was 4.99 µM in data set [1] (read-out: IC50); “Not Active” on Calcitonin receptor; “Not Active” in data set [2]; “Not Active” in [3]; “Not Active” at D(3) dopamine receptor; “Not Active” in [4]. The IC50 result (at Melanocortin receptor 3; in data set [5]; in [6]; in data set [7]; at Estrogen receptor beta) was “Not Active” throughout. The values for the Ki in data set [1] (read-out: Ki) and in data set [4] were 4.95 µM and “Not Active”, respectively.

In the case of `COC(=O)C1=C(C)NC(C)=C(C(=O)OC)C1c1ccccc1[N+](=O)[O-]` [NIFEDIPINE], the IC50 result (in [1] (mdck); at Calcitonin receptor; in data set [2]; in data set [3]; on D(3) dopamine receptor; in data set [4]) was “Not Active” in each case. Further, the IC50 entry (on Melanocortin receptor 3; in data set [5]; in [6]; in [7]; against Estrogen receptor beta) was “Not Active” each time. The Ki result in [4] was “Not Active”.

Regarding `NNc1ccccc1` [PHENYLHYDRAZINE], the IC50 entry (in data set [1] (mdck); at Calcitonin receptor; in data set [2]; in [3]; at D(3) dopamine receptor; in data set [4]) was “Not Active” in each case. Also, the IC50 entry (on Melanocortin receptor 3; in data set [5]; in [6]; in [7]; against Cytochrome P450 2E1; at Estrogen receptor beta) was “Not Active” each time. Moreover, in data set [8], the IC50 result is “Not Active”. The Ki entry (in [4]; on Cytochrome P450 2E1; in data set [8]) was “Not Active” throughout.

`CC(=O)[C@H]1CC[C@H]2[C@@H]3CCC4=CC(=O)CC[C@]4(C)[C@H]3CC[C@]12C` [PROGESTERONE]: the IC50 entry was “Not Active” in data set [1] (mdck); “Not Active” at Calcitonin receptor; “Not Active” in data set [3]; “Not Active” on D(3) dopamine receptor; 24.9 µM in data set [4] (read-out: IC50); “Not Active” against Melanocortin receptor 3. For the same compound, the IC50 result (in data set [5]; in [6]; in data set [7]; against Cytochrome P450 1A2; against Cytochrome P450 2C19; at Cytochrome P450 2C9) was “Not Active” in each case. For the same compound, the IC50 result against Cytochrome P450 2D6, against Cytochrome P450 2E1 and against Estrogen receptor beta was “Not Active” each time. The Ki was 22.3 µM in data set [4] (read-out: Ki); “Not Active” at Cytochrome P450 1A2; “Not Active” on Cytochrome P450 2C19; “Not Active” on Cytochrome P450 2C9; “Not Active” on Cytochrome P450 2D6; “Not Active” on Cytochrome P450 2E1.

Regarding `CC(=O)S[C@@H]1CC2=CC(=O)CC[C@]2(C)[C@H]2CC[C@@]3(C)[C@@H](CC[C@@]34CCC(=O)O4)[C@H]12` [SPIRONOLACTONE], the IC50 result (in data set [1] (mdck); on Calcitonin receptor; in data set [2]; in [3]; on D(3) dopamine receptor; in [4]) was “Not Active” each time. Also, the IC50 result (at Melanocortin receptor 3; in data set [5]; in data set [6]; in data set [7]; at Cytochrome P450 2E1; on Estrogen receptor beta) was “Not Active” each time. For the same compound, the IC50 result in [8] is “Not Active”. For the same compound, the Ki entry (in data set [4]; on Cytochrome P450 2E1; in [8]) was “Not Active” in each case.

For the compound `Cc1cc(NS(=O)(=O)c2ccc(N)cc2)no1` [SULFAMETHOXAZOLE], the IC50 entry (in data set [1] (mdck); on Calcitonin receptor; in data set [2]; in [3]; at D(3) dopamine receptor; in data set [4]) was “Not Active” each time. The IC50 entry (against Melanocortin receptor 3; in data set [5]; in data set [6]; in data set [7]; at Cytochrome P450 2E1; at Estrogen receptor beta) was “Not Active” each time. Moreover, the Ki entry (in [4]; at Cytochrome P450 2E1) was “Not Active” in each case.

Take `Nc1ccc(S(N)(=O)=O)cc1` [SULFANILAMIDE]: the IC50 entry (in data set [1] (mdck); on Calcitonin receptor; in [2]; in data set [3]; at D(3) dopamine receptor; in [4]) was “Not Active” throughout. Besides, the IC50 entry (against Melanocortin receptor 3; in [5]; in data set [6]; in data set [7]; on Cytochrome P450 2E1; against Estrogen receptor beta) was “Not Active” in each case. Further, the Ki entry (in [4]; on Cytochrome P450 2E1) was “Not Active” each time.

`COC(=O)[C@@H]1[C@H]2C[C@H]3c4[nH]c5ccccc5c4CCN3C[C@@H]2CC[C@@H]1O` [YOHIMBINE]: the IC50 result (in data set [1] (mdck); at Calcitonin receptor; in data set [2]; in data set [3]; at D(3) dopamine receptor; in data set [4]) was “Not Active” in each case. Also, the IC50 result (against Melanocortin receptor 3; in [5]; in data set [6]; in data set [7]; at Estrogen receptor beta; in data set [8]) was “Not Active” each time. The Ki result in data set [4] and in data set [8] was “Not Active” throughout.
